How the values were obtained:
Assay in all cases: relative viability (nuclei count vs DMSO), 5 days (fraction); higher = more cells survive
[1] = tested on: NCI-H1666
Procedure, shortened: (§1)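 Lung cancer cell lines were seeded in 1536-well plates and dosed by pin tool the next day, with either a single drug or a fixed anchor-drug dose combined with five library-drug doses (not always all listed) spaced in √10 steps. Five days later, one step fixed the cells and stained their nuclei (final 0.05% Triton X-100, 1% formaldehyde, 1 ug/ml Hoechst), and nuclei were counted on 4× images. Relative viability is the nuclei count in treated wells divided by the count in vehicle wells, and each value is the median of duplicate plates.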

[2] = tested on: NCI-H23
Procedure, shortened: as §1

[3] = tested on: LOU-NH91
Procedure, shortened: as §1

[4] = tested on: EPLC-272H
Procedure, shortened: as §1

[5] = tested on: NCI-H1563
Procedure, shortened: as §1

[6] = tested on: NCI-H2085
Procedure, shortened: as §1

[7] = tested on: NCI-H1975
Procedure, shortened: as §1

[8] = tested on: NCI-H322M
Procedure, shortened: as §1

[9] = tested on: LU99A
Procedure, shortened: as §1

[10] = tested on: HCC-78
Procedure, shortened: as §1

[11] = tested on: NCI-H2405
Procedure, shortened: as §1

[12] = tested on: LXF-289
Procedure, shortened: as §1

[13] = tested on: LK-2
Procedure, shortened: as §1

[14] = tested on: SK-LU-1
Procedure, shortened: as §1

[15] = tested on: HCC-827
Procedure, shortened: as §1

[16] = tested on: RERF-LC-KJ
Procedure, shortened: as §1

[17] = tested on: SW 1573
Procedure, shortened: as §1

[18] = tested on: EMC-BAC-2
Procedure, shortened: as §1

[19] = tested on: NCI-H2126
Procedure, shortened: as §1

[20] = tested on: NCI-H3122
Procedure, shortened: as §1

In the case of Oc1nc(-c2ccc(C(F)(F)F)cc2)nc2c1CSCC2 [XAV939] + CS(=O)(=O)CCNCc1ccc(-c2ccc3ncnc(Nc4ccc(OCc5cccc(F)c5)c(Cl)c4)c3c2)o1 [Lapatinib] (partner 2 µM), the relative viability ([1]; first compound 0.08 µM) is reported as 0.571, the relative viability ([1]; first compound 0.253 µM) is reported as 0.415 and the relative viability ([1]; first compound 0.8 µM) is reported as 0.442. It also gave a relative viability ([1]; first compound 2.53 µM) of 0.353, a relative viability ([2]; first compound 0.08 µM) of 1.17 and a relative viability ([2]; first compound 0.253 µM) of 1.01. The relative viability ([2]; first compound 0.8 µM) was 0.966, the relative viability ([2]; first compound 2.53 µM) was 0.932 and the relative viability ([3]; first compound 0.08 µM) was 0.73. The relative viability ([3]; first compound 0.253 µM) was 0.695, the relative viability ([3]; first compound 0.8 µM) was 0.696 and the relative viability ([3]; first compound 2.53 µM) was 0.628. It also gave a relative viability ([4]; first compound 0.08 µM) of 1.06, a relative viability ([4]; first compound 0.253 µM) of 0.893 and a relative viability ([4]; first compound 0.8 µM) of 1. The relative viability ([4]; first compound 2.53 µM) was 0.864, the relative viability ([5]; first compound 0.08 µM) was 1.15 and the relative viability ([5]; first compound 0.253 µM) was 0.852. For the same compound, the relative viability ([5]; first compound 0.8 µM) was 0.809, the relative viability ([5]; first compound 2.53 µM) was 0.773 and the relative viability ([6]; first compound 0.08 µM) was 0.692. For the same compound, the relative viability ([6]; first compound 0.253 µM) was 0.699, the relative viability ([6]; first compound 0.8 µM) was 0.743 and the relative viability ([6]; first compound 2.53 µM) was 0.649. It also gave a relative viability ([7]; first compound 0.08 µM) of 0.733, a relative viability ([7]; first compound 0.253 µM) of 0.655 and a relative viability ([7]; first compound 0.8 µM) of 0.753. For the same compound, the relative viability ([7]; first compound 2.53 µM) was 0.646, the relative viability ([8]; first compound 0.08 µM) was 0.602 and the relative viability ([8]; first compound 0.253 µM) was 0.57. For the same compound, the relative viability ([8]; first compound 0.8 µM) was 0.599, the relative viability ([8]; first compound 2.53 µM) was 0.426 and the relative viability ([9]; first compound 0.08 µM) was 0.964. For the same compound, the relative viability ([9]; first compound 0.253 µM) was 0.851, the relative viability ([9]; first compound 0.8 µM) was 0.995 and the relative viability ([9]; first compound 2.53 µM) was 0.939. The relative viability ([10]; first compound 0.08 µM) was 0.868, the relative viability ([10]; first compound 0.253 µM) was 0.508 and the relative viability ([10]; first compound 0.8 µM) was 0.326. The relative viability ([10]; first compound 2.53 µM) was 0.457, the relative viability ([11]; first compound 0.08 µM) was 1.25 and the relative viability ([11]; first compound 0.253 µM) was 1.02. It also gave a relative viability ([11]; first compound 0.8 µM) of 0.972, a relative viability ([11]; first compound 2.53 µM) of 1.1 and a relative viability ([12]; first compound 0.08 µM) of 0.898. It also gave a relative viability ([12]; first compound 0.253 µM) of 0.826, a relative viability ([12]; first compound 0.8 µM) of 0.897 and a relative viability ([12]; first compound 2.53 µM) of 0.919. It also gave a relative viability ([13]; first compound 0.08 µM) of 0.979, a relative viability ([13]; first compound 0.253 µM) of 0.981 and a relative viability ([13]; first compound 0.8 µM) of 1.04. For the same compound, the relative viability ([13]; first compound 2.53 µM) was 0.928, the relative viability ([14]; first compound 0.08 µM) was 0.858 and the relative viability ([14]; first compound 0.253 µM) was 0.845. For the same compound, the relative viability ([14]; first compound 0.8 µM) was 0.863, the relative viability ([14]; first compound 2.53 µM) was 0.906 and the relative viability ([15]; first compound 0.08 µM) was 0.194. For the same compound, the relative viability ([15]; first compound 0.253 µM) was 0.178, the relative viability ([15]; first compound 0.8 µM) was 0.238 and the relative viability ([15]; first compound 2.53 µM) was 0.187. It also gave a relative viability ([16]; first compound 0.08 µM) of 0.833, a relative viability ([16]; first compound 0.253 µM) of 0.702 and a relative viability ([16]; first compound 0.8 µM) of 0.672. The relative viability ([16]; first compound 2.53 µM) was 0.609, the relative viability ([17]; first compound 0.08 µM) was 1.11 and the relative viability ([17]; first compound 0.253 µM) was 0.908. The relative viability ([17]; first compound 0.8 µM) was 1.07, the relative viability ([17]; first compound 2.53 µM) was 0.983 and the relative viability ([18]; first compound 0.08 µM) was 1.01. For the same compound, the relative viability ([18]; first compound 0.253 µM) was 0.821, the relative viability ([18]; first compound 0.8 µM) was 0.837 and the relative viability ([18]; first compound 2.53 µM) was 0.681. For the same compound, the relative viability ([19]; first compound 0.08 µM) was 0.739, the relative viability ([19]; first compound 0.253 µM) was 0.583 and the relative viability ([19]; first compound 0.8 µM) was 0.667. It also gave a relative viability ([19]; first compound 2.53 µM) of 0.585, a relative viability ([20]; first compound 0.08 µM) of 1.01 and a relative viability ([20]; first compound 0.253 µM) of 0.95. It also gave a relative viability ([20]; first compound 0.8 µM) of 1.01 and a relative viability ([20]; first compound 2.53 µM) of 1.01.

— the supplement of paper PMC10307832
